Patent publication US20240024520A1, “AUTONOMOUS KNOB DOMAIN PEPTIDES” (UCB BIOPHARMA SRL, priority 2020, published 2024)
Read-outs that look alike come from different tables or passages of the source. Bridge positions count the residues as written; N and C are the ends. Ends that are not written are not given here. Peptide text beside a SMILES is read from it. * marks the point of attachment. Palmitoyl = CCCCCCCCCCCCCCCC(=O)*

Columns and labels:
[1] = test system: Classical pathway C5b deposition; assay: Classical pathway C5b (neo-epitope) deposition ELISA, SVAR kit; assay type: biochemical, human; conditions: chemFE peptides, Example 10; result in words
From the text: (§1) To elucidate the functional consequences of the knob domain peptides binding to human C5, we performed complement activation assays using the SVAR complement activation ELISA which measured CP (Classical Pathway) and AP (Alternative Pathway) activation in human serum, through formation of the C5b neo-epitope. We also developed orthogonal ELISA assays which measured total complement and AP specific mediated C3b and MAC (Membrane Attack Complex) deposition. For all activation conditions, we also tracked C5a release via ELISA.
(§2) For the C5b ELISA, assays were run using the CP and AP Complement functional ELISA kits (SVAR), as per the manufacturer's protocol. For sample preparation: serum was diluted as per the respective protocol for the CP and AP assays. Titrations of peptides were prepared and allowed to incubate for 15 minutes at room temperature, prior to plating.
(§3) Functional activity of chemically derived knob domain peptides was confirmed in a complement activation ELISAs which measured inhibition of C5b neoepitope deposition.
(§4) Finally, we tested our constructs in AP and CP complement activation ELISAs, which measured C5b neoepitope deposition.
(§5) Complement ELISA: assays were run using the CP and AP Complement functional ELISA kits (SVAR, COMPL 300 RUO), as per the manufacturer's protocol. For sample preparation, serum was diluted as per the respective protocol for the CP and AP assays; serial dilutions of peptides were prepared and allowed to incubate with serum for 15 minutes at room temperature, prior to plating.

[2] = test system: Alternative pathway C5b deposition; assay: Alternative pathway C5b (neo-epitope) deposition ELISA, SVAR kit; assay type: biochemical, human; conditions: chemFE peptides, Example 10; result in words
From the text: as §1, §2, §3, §4, §5

[3] = biological target: C5 (Homo sapiens, UniProt P01031); assay: Biacore multi-cycle kinetics on human C5; assay type: binding; conditions: for mean stoichiometric ratio: measured Rmax divided by theoretical Rmax; for binding to human C5: chemical knob domains and variants, result in words
Sequence of C5 (P01031 19-1676): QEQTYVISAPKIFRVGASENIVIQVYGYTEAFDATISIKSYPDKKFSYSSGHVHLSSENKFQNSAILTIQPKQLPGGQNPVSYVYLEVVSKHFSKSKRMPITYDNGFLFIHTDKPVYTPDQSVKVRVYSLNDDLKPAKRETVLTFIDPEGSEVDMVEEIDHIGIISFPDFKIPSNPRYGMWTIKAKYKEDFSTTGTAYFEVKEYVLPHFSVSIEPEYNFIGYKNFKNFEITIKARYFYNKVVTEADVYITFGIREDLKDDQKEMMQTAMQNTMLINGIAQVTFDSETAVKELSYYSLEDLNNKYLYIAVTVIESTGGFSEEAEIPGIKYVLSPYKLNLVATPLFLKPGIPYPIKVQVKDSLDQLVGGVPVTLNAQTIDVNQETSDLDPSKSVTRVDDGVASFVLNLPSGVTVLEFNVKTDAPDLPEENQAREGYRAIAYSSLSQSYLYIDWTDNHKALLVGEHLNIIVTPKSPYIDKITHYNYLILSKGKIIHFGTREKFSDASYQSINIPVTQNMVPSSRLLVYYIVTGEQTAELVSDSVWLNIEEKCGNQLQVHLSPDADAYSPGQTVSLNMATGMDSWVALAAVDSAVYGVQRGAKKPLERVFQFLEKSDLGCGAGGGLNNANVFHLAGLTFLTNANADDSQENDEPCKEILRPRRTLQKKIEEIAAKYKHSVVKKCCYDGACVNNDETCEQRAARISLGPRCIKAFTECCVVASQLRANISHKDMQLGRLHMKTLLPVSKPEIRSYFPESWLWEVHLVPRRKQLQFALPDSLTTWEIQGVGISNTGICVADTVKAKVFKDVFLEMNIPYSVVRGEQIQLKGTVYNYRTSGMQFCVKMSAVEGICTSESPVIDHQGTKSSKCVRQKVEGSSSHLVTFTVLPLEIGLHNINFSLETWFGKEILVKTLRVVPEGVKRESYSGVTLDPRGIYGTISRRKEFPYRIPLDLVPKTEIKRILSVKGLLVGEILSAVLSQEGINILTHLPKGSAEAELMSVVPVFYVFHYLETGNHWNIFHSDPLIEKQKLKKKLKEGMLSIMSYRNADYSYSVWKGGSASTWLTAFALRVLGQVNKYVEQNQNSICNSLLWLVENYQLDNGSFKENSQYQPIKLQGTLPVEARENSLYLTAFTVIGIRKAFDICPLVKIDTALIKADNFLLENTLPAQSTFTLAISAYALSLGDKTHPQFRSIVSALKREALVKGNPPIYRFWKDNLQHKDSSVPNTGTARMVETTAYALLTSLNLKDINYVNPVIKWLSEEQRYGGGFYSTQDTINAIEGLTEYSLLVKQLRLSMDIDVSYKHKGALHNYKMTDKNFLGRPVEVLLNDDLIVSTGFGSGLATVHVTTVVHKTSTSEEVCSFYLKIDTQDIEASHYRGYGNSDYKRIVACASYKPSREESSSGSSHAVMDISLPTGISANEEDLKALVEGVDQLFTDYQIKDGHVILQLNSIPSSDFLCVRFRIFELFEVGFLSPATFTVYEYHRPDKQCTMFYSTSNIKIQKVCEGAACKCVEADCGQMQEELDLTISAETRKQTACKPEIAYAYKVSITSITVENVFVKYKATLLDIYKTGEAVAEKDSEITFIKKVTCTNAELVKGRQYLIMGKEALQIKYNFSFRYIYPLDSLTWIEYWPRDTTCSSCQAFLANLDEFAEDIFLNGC
Procedure: Binding of knob domain peptides to human C5 was measured by SPR, using a multi-cycle kinetics method as follows:
(§6) Kinetics were measured using a Biacore 8K (GE Healthcare) with a CM5 chip, which was prepared as follows: EDC/NHS was mixed at 1:1 ratio (flow rate, 10 μL/min; contact time, 30 seconds), human C5 protein at 1 μg/mL in pH 4.5 sodium-acetate buffer, were injected over flow cell one only (flow rate, 10 μL/min; contact time, 60 seconds). Final immobilization levels in the range of 2000-3000 response units (RU) were obtained, to yield theoretical Rmax values of ˜50-60 RU. Serial dilutions of peptide were prepared in HBS-EP buffer and injected (flow rate, 30 μL/min; contact time, 240 seconds; dissociation time, 6000 seconds). After each injection, the surface was regenerated with two sequential injections of 2M MgCl2 (flow rate, […]; contact time, 30 seconds). Binding to the reference surface was subtracted, and the data were fitted to a single site binding model, using Biacore evaluation software.

[4] = test system: rabbit erythrocytes; assay: Alternative pathway haemolysis assay; assay type: cell-based; conditions: normal human sera; result in words
Procedure: (§7) Haemolysis assays: For AP, 50 μL of 24% normal human sera (Complement Technology), 50 of 20 mM MgEGTA (Complement Technology), and 48 μL of GVB0 buffer (0.1% gelatin, […], 145 mM NaCl, 0.025% NaN3, pH 7.3, Complement Technology) were aliquoted into a single well of a 96-well tissue culture plate (USA Scientific) then mixed with 2 μL of inhibitors serially diluted in DMSO. Following equilibration for 15 minutes at room temperature, 50 μL of rabbit erythrocytes (Complement Technology), at 2.5×10^7 per well, were added to the plates, which were then incubated at 37° C. for 30 minutes. Plates were centrifuged at 1,000×g for 3 min and 100 μL of supernatant was collected, transferred to another 96-well tissue culture treated plate, and absorbance was measured at 412 nm. For CP, […], 48 μL of GVB++ buffer (0.1% gelatin, 5 mM Veronal, 145 mM NaCl, 0.025% NaN3, pH 7.3 with 0.15 mM CaCl2 and 0.5 mM MgCl2, Complement Technology) and 2 μL of inhibitors serially diluted in DMSO were aliquoted into a single well and equilibrated as described. Next, 100 μL of antibody-sensitized sheep red blood cells (Complement Technology) at 5×10^7 per well were added to the plate, which was then incubated at 37° C. for 1 hour. Samples were subsequently processed as described.

[5] = test system: antibody-sensitized sheep red blood cells; assay: Classical pathway haemolysis assay; assay type: cell-based; conditions: normal human sera; result in words
Procedure: as §7

[6] = biological target: rat C5 protein (Rattus norvegicus, UniProt P08650); assay: Biacore kinetics on rat C5 (cross-reactivity); assay type: binding; conditions: SPR
Sequence of rat C5 protein (P08650 19-1681): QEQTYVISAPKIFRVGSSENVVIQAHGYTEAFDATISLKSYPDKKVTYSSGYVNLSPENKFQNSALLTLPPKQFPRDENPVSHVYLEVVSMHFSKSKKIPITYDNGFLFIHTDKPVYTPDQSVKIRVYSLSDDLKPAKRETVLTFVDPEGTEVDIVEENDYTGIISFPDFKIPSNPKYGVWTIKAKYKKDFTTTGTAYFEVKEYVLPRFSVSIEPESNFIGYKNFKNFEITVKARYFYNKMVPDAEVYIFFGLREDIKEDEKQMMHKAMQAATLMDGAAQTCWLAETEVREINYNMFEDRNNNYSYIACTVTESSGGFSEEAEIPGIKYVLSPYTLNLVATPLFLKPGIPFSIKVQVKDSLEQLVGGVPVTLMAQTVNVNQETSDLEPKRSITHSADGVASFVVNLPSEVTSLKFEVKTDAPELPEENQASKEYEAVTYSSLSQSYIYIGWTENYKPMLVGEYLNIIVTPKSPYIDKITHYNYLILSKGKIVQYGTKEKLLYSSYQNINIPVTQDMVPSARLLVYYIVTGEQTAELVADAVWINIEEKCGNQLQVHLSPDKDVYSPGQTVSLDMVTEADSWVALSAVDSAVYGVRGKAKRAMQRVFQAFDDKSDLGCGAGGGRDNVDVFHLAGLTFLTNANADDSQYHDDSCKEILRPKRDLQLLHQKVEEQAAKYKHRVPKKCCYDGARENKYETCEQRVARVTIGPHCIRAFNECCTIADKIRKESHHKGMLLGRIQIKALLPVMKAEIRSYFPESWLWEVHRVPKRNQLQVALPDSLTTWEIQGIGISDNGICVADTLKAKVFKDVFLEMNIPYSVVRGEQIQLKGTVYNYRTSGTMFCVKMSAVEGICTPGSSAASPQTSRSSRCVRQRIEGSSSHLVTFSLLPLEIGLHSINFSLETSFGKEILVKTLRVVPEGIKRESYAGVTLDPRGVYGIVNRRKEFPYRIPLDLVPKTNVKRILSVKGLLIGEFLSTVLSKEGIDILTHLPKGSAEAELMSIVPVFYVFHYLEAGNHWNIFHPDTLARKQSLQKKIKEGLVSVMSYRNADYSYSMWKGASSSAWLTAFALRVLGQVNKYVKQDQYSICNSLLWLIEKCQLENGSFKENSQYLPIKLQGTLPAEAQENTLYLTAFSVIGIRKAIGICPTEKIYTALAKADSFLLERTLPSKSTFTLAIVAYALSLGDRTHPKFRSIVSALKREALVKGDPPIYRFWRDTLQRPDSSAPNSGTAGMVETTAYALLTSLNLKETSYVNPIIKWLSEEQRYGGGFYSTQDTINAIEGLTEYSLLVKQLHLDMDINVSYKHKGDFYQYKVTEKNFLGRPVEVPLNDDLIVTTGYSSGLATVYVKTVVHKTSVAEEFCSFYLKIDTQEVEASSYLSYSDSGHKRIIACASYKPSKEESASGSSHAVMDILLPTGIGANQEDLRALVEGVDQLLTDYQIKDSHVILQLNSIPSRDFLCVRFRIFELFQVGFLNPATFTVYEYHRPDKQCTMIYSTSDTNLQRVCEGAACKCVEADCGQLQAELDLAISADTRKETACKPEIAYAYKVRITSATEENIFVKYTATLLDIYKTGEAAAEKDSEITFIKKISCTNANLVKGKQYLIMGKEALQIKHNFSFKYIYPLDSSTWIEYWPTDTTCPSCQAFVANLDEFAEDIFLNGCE
Procedure: as §6, with “rat” for “human”, “ug/mL” for “μg/mL”

[7] = In vivo pharmacokinetics after intravenous bolus; conditions: rat, plasma; 1 mg/kg intravenous; male Sprague-Dawley rats; read-out: plasma clearance [C1p]
Procedure: Plasma pharmacokinetics was studied for each peptide in male Sprague-Dawley rats of a body weight between 324 and 425 g. Drug was administered intravenously via the tail vein. […] Blood samples were taken at 7 minutes, 15 minutes, 30 minutes, followed by 1, 2, 4, 8 and 24 hours. Blood was collected into Li Heparin tubes and spun to prepare plasma samples for bioanalysis. Bioanalytical data was analysed on an individual animal basis using Pharsight Phoenix 64 Build 8.1. Non-compartmental analysis was conducted and mean pharmacokinetic parameters for each drug calculated.

[8] = relative to unmodified peptide
[9] = read-out: mean Koff, multi-cycle kinetics, n = 3 experiments
[10] = read-out: mean Kon, multi-cycle kinetics, n = 3 experiments

Row | Molecule | inhibition of CP, C5b deposition [1] | inhibition of AP, C5b deposition [2] | mean stoichiometric ratio ([3]; n = 3 experiments) | inhibition of haemolysis, AP [4] | binding to human C5 [3] | koff [3, 9] | kon [3, 10] | inhibition of haemolysis, CP [5] | cross reactivity with rat C5 protein [6] | other results
1 | CC[C@H](C)[C@@H]1NC(=O)[C@H](C)NC(=O)[C@H](C(C)C)NC(=O)CNC(=O)[C@@H]2CSSC[C@@H](C(=O)NCC(=O)N[C@@H](Cc3c[nH]cn3)C(=O)N[C@@H](Cc3ccccc3)C(=O)N[C@@H](CC(C)C)C(=O)N[C@@H](CC(N)=O)C(=O)N[C@@H](CO)C(=O)NCC(=O)N3CCC[C@H]3C(=O)N[C@@H](CC(N)=O)C(=O)N[C@H](C(=O)N[C@@H](CO)C(=O)N3CCC[C@H]3C(=O)N[C@@H](Cc3ccc(O)cc3)C(=O)N[C@H](C(=O)N[C@@H](CO)C(=O)N[C@H](C(=O)O)[C@@H](C)O)C(C)C)[C@@H](C)CC)NC(=O)CNC(=O)[C@H](Cc3c[nH]c4ccccc34)NC(=O)[C@H](CCCNC(=N)N)NC(=O)CNC(=O)[C@H](CSSC[C@H](NC(=O)[C@@H](N)[C@@H](C)O)C(=O)N3CCC[C@H]3C(=O)N[C@@H](CCC(=O)O)C(=O)NCC(=O)N[C@@H](Cc3c[nH]c4ccccc34)C(=O)N[C@@H](CO)C(=O)N[C@@H](CCC(=O)O)C(=O)N2)NC(=O)[C@H](CCC(=O)O)NC(=O)[C@H](Cc2ccc(O)cc2)NC(=O)CNC(=O)[C@H](Cc2ccc(O)cc2)NC1=O [K92chemFE] (H-TCPEGWSECGVAIYGYECGRWGCGHFLNSGPNISPYVST-OH; disulfide 2-18, 9-23) | modest, dose dependent enhancement | partially inhibited | 0.40 | active solely in the AP-driven haemolysis assay |  |  |  |  |  | koff ([3]; multi-cycle kinetics, n = 3 experiments, read-out: mean Koff): 0.000101 s⁻¹; kon ([3]; multi-cycle kinetics, n = 3 experiments, read-out: mean Kon): 283000 M⁻¹ s⁻¹
2 | CSCC[C@@H]1NC(=O)[C@@H]2CCCN2C(=O)[C@@H](NC(=O)[C@@H]2CSSC[C@H](NC(=O)[C@@H](N)CO)C(=O)N3CCC[C@H]3C(=O)N[C@@H](CC(=O)O)C(=O)NCC(=O)N[C@@H](Cc3ccccc3)C(=O)N[C@@H](CO)C(=O)N[C@@H](Cc3ccc(O)cc3)C(=O)N[C@@H](CCCNC(=N)N)C(=O)N[C@@H](CO)C(=O)N[C@@H](Cc3c[nH]c4ccccc34)C(=O)N[C@@H](CC(=O)O)C(=O)N[C@@H](CC(=O)O)C(=O)N[C@@H](Cc3ccccc3)C(=O)N2)CSSC[C@@H](C(=O)N[C@@H](CC(C)C)C(=O)N[C@@H](C)C(=O)N2CCC[C@H]2C(=O)N[C@@H](CCCNC(=N)N)C(=O)N[C@@H](CC(N)=O)C(=O)O)NC(=O)[C@H](CCCNC(=N)N)NC(=O)CNC(=O)[C@H](C(C)C)NC1=O [K149chemFE] (H-SCPDGFSYRSWDDFCCPMVGRCLAPRN-OH; disulfide 2-15, 16-22 (inferred); N-terminus assumed) | non-functional, silent binder | non-functional, silent binder | 0.85 |  | equal affinity |  |  |  |  | binding to C5 ([3]; after reduction and capping of cysteines with iodoacetamide (loss of disulphide bonds)): entirely abrogated binding; Kd ([3]; multi-cycle kinetics, n = 3 experiments, read-out: mean KD): 5.57 nM
3 | GCPPGYKSGVDCSPGSECKWGCYAVDGRRYGGYGADSGVGS-OH (disulfide 2-18, 12-22) [K57chemFE] | potent and fully efficacious inhibitor | potent and fully efficacious inhibitor | 0.65 | potent and fully efficacious inhibitor |  | 0.000579 s⁻¹ | 260000 M⁻¹ s⁻¹ | potent and fully efficacious inhibitor | specific for human C5 | 
4 | K8 chemFE cyclic: cyclic peptide from head-to-tail cyclisation of the K8chemFE knob domain (cyclo(VCPDGFNWGYGCAAGSSRFCTRHDWCCYDERADSHTYGFCTGNRV); also: disulphides formed by free energy method, pairing not given here) |  |  |  | functionally active complement inhibitor | bound human C5 |  |  | functionally active complement inhibitor |  | 
5 | Palmitoyl-GCPPGYKSGVDCSPGSECKWGCYAVDGRRYGGYGADSGVGS-OH (disulfide 2-18, 12-22) [K57 chemFE-Palmitoyl] |  |  |  |  | unaffected |  |  |  |  | clearance [7]: 0.8 mL/min/kg; solubility [8]: reduced solubility
6 | VCPDGFNWGYGCAAGSSRFCTRHDWCCYDERADSHTYGFCTGNRV-OH (disulfide 2-26, 12-40, 20-27) [K8chemFE] | partial inhibitor | partial inhibitor | 0.25 |  |  | 0.000385 s⁻¹ | 70500 M⁻¹ s⁻¹ |  | tightly bound | cross reactivity with rat C5 protein ([6]; listed as K8chem): cross reactive
